These results are taken from paper PMC6426897, “Inhibition of NLRP3 inflammasome activation by cell-permeable stapled peptides” (Scientific Reports, 2019).

Where a SMILES comes first, the peptide text is derived from it. Bridges are numbered along the chain shown (N, C = ends). [ ]: non-standard residue; d: D form. R8 = C=CCCCCCC[C@@](C)(N)C(=O)O; S5 = C=CCCC[C@](C)(N)C(=O)O

Data set [1] can be described thus: Circular dichroism, percentage of helicity (K2D3). The conditions noted are these: CD, room temperature, water, 100 μM peptide; estimated with K2D3. It counts as physicochemical. An excerpt: The conformation of helix 2 (^16TAEELKKFKLKLLSV^30) bound to ASC^PYD (Fig. 1A) was used as the starting structure for the peptide-protein interaction modeling. Following I,I + 7 stapling scheme, we inserted a hydrocarbon staple across positions 5 and 12 along the peptide and then introduced mutations to produce a set of stapled peptides. Two variants of the template peptide were designed – a short version containing 13 residues (ms_ASC^PYD #6) and a long version containing 15 residues (ms_ASC^PYD #1–5) with two additional residues at the N-terminus (Table 1). These two additional residues were inserted to increase the length of the peptide, thus potentially enabling sufficient conformational flexibility for the region involving the critical Arg3 to remain helical. A similar approach was taken to introduce the staple in the ms_NLRP3^PYD peptide. As determined from Circular Dichroism (CD) spectra, inserting the I,I + 7 staple had the intended effect of increasing helicity of the peptides (Fig. 3). […] Percentage of helicity was much higher for ASC^PYD stapled peptides #5 and #6, 95% and 70% respectively at 100 μM peptide concentration. Percentage of helicity for the peptides were estimated from the web server K2D3[36] using CD data.
Figure 3 Circular dichroism (CD) spectra of (A) NLRP3^PYD and (B) ASC^PYD peptides to measure secondary structures.

Data set [2] relates to NLRP3 inflammasome. Nature of the data set: IL-1β release from THP-1 cells stimulated with LPS and nigericin (ELISA). It counts as cell-based, human. The following applies: THP-1, LPS 0.1 μg/ml 4 h, nigericin 10 μM 1 h, Fig. 8A. As for the experimental part: We next examined whether the ASC peptides could inhibit IL-1β production, which is regulated by the inflammasome. We used THP-1 human monocytic cells to study inflammasome activation as they express high levels of NLRP3, ASC, and pro-casp-1. THP-1 cells were incubated with ms_ASC^PYD #1–6 or ms_NLRP3^PYD peptides at increasing concentrations for 4 hours and were then stimulated with LPS for 4 hours, followed by the NLRP3 activator nigericin for 1 hour. IL-1β levels were measured in the culture supernatant. […] The ms_ASC^PYD peptides reduced IL-1β production from THP-1 cells in response to LPS/nigericin stimulation to variable degrees (Fig. 6A). […] We decided to continue investigating in detail the inhibitory effects of ms_ASC^PYD #5 and #6 peptides, as their estimated binding energies matched well with the experimental data of suppression of ASC-dependent IL-1 release in a dose-dependent manner. Since ms_ASCPYD #6 is the shorter version of ms_ASCPYD #5, this selection also enabled us to verify the effect of varying peptide lengths.
(§1) Human monocytic THP-1 cells (1 × 10^7 cells) were plated in a 10-cm tissue culture dish and treated with PMA (200 nM) overnight to differentiate monocytic cells into macrophages. Cells were then washed and allowed to rest in fresh media for another day. For stimulation, differentiated THP-1 cells were trypsinized and seeded in 96-well plates (2 × 10^6/well). Peripheral blood mononuclear cells were isolated by Ficoll-Hypaque density gradient centrifugation from buffy coats obtained from anonymous donors provided by the National University Hospital Blood Bank, Singapore. Isolation of monocytes was performed using negative selection with the Monocyte Isolation Kit II (Miltenyi Biotech), following the manufacturer’s instructions. Monocytes were plated in tissue culture non-treated 96-well plates (2.5 × 10^5/well) in 250 µl RPMI 1640-Glutamax media supplemented with 3% human AB serum (Gemini Bio Products).
THP-1 cells and monocytes were incubated with NLRP3^PYD (12.5–25–50 μM), ASC^PYD #5 (12.5-25-50-100 μM) or ASC^PYD #6 (12.5-25-50-100 μM) for the indicated durations. Cells were then washed once with PBS and primed with E. coli LPS (0.1 μg/ml, Invivogen) for 4 h followed by stimulation with nigericin (10 μM) for an additional 1 h or ATP ([…]) for an additional 30 min. The cell culture supernatants were then collected and centrifuged at 500 × g to remove cells and cellular debris.
(§2) IL-1β levels were measured using antibodies from eBioscience (cat. #14-7018-81 and #13-7016-85), following the manufacturer’s instructions. IL-18 levels were measured using antibodies from MBL (D044-3 and D045-6) following the manufacturer’s instructions. The absorbance was measured at 450 nm with the reference wavelength at 570 nm, using an M200 Infinite plate reader (Tecan).
For orientation: ELISA stands for enzyme-linked immunosorbent assay.

Data set [3] deals with NLRP3 inflammasome. Nature of the data set: IL-1β secretion from LPS-primed primary human monocytes upon ATP stimulation (ELISA). It counts as cell-based. The following applies: human blood monocytes, LPS 0.1 μg/ml 4 h, ATP 30 min; 25, 50 and 100 μM; Fig. 8B. As for the experimental part:
as §1, with “Products). […]” for “Products).”
as §2

The test system of data set [4] is NLRP3 inflammasome. Nature of the data set: IL-18 secretion from LPS-primed primary human monocytes upon ATP stimulation (ELISA). The conditions noted are these: human blood monocytes, LPS 0.1 μg/ml 4 h, ATP 30 min; 25, 50 and 100 μM; Fig. 8B. It counts as cell-based. As for the experimental part:
as §1, with “Products). […]” for “Products).”
as §2

Take `CC[C@H](C)[C@@H]1NC(=O)[C@H](CCCCN)NC(=O)[C@H](C)NC(=O)[C@H](CC(C)C)NC(=O)[C@H](CCCCN)NC(=O)[C@](C)(NC(=O)[C@H](C)NC(=O)[C@H](CCCNC(=N)N)NC(=O)[C@H](C)NC(=O)[C@@H](NC(C)=O)[C@@H](C)O)CCCCCCC=CCCC[C@@](C)(C(=O)N[C@@H](CCC(=O)O)C(=O)N[C@@H](CO)C(=O)N[C@H](C(N)=O)C(C)C)NC(=O)[C@H](CCCCN)NC1=O` [ms_ASC^PYD #5] (Ac-TARA[R8]KLAKIK[S5]ESV-NH2; staple 5-12): the Percentage of helicity in data set [1] was 95%. The results for the “Inhibition of IL-1β production” value in the data set on NLRP3 inflammasome [2] (50 μM peptide) and in the data set with NLRP3 inflammasome [2] (100 μM peptide) were more than 60% and more than 90%, respectively. Also, the “IL-1β secretion (in words)” value with NLRP3 inflammasome [3] was “effectively inhibited”. The “IL-18 secretion (in words)” value in the data set with NLRP3 inflammasome [4] is “effectively inhibited”.

Take `CC[C@H](C)[C@@H]1NC(=O)[C@H](CCCCN)NC(=O)[C@H](C)NC(=O)[C@H](CCCCN)NC(=O)[C@H](CCCCN)NC(=O)[C@](C)(NC(=O)[C@H](C)NC(=O)[C@H](CCCNC(=N)N)NC(C)=O)CCCCCCC=CCCC[C@@](C)(C(=O)N[C@@H](CCC(=O)O)C(=O)N[C@@H](CO)C(=O)N[C@H](C(N)=O)C(C)C)NC(=O)[C@H](CCCCN)NC1=O` [ms_ASC^PYD #6] (Ac-RA[R8]KKAKIK[S5]ESV-NH2; staple 3-10): in data set [1], the Percentage of helicity is 70%. For the same molecule, the “Inhibition of IL-1β production” value with NLRP3 inflammasome [2] (50 μM peptide) is reported as more than 60%; in the data set on NLRP3 inflammasome [2] (100 μM peptide) it was more than 90%. The “IL-1β secretion (in words)” value in the data set with NLRP3 inflammasome [3] is given as “effectively inhibited”. For the same molecule, the “IL-18 secretion (in words)” value with NLRP3 inflammasome [4] is listed as “effectively inhibited”.
